Patent publication US20130296412A1, “Artemisinin-Like Derivatives with Cytotoxic and Anti-Angiogenic Properties” (DAFRA PHARMA N.V., priority 2010, published 2013)
Read-outs that look alike come from different tables or passages of the source.

What was measured:
HUVEC cells = test: VEGF-induced HUVEC proliferation/viability assay (WST1); format: cell-based, human; details: for Inhibition of proliferation and survival of HUVECs: 30 ng/ml VEGF165, 0.5-100 μM, 96 hrs
Procedure: Single donor HUVEC cells were purchased from Lonza (Breda, Netherlands). Cells were seeded at 5,000 cells per well in 96-well microtiterplates in EGM-2EV medium (Invitrogen). Upon adherence the cells were gently washed twice with PBS and starved overnight in EGM-2EV medium with reduced FBS content (0.1%; starvation medium).
After 96 hrs, cell growth was quantified using the WST1 Rapid cell proliferation kit (Calbiochem), and was expressed in percentage of the control value (VEGF alone). Experiments were carried out in triplets.
To further evaluate the anti-angiogenic potential of the present novel compounds, proliferation and survival of human umbilical vein endothelial cells (HUVECs) treated with VEGF and two compounds that were very active in the zebrafish model were assayed.

P-glycoprotein (P-gp) [1] = biological target: T1, P-glycoprotein (P-gp) (Homo sapiens, UniProt P08183)
Procedure: (§6) The intracellular accumulation of calcein inside the cells is measured by using FACS analysis. The points indicate mean values of fluorescent effect, vertical lines show standard error calculated on the base of two independent experiment replicates. The effect corresponds to a control of cells which were treated only with calcein.
(§7) Test compounds were dissolved in DMSO as stock solutions and further dilutions were made with DMEM/HAM's F12 1:1 (Biochrom). […] A range of concentrations of test compound in a volume of 300-600 μL cell suspension were added, followed by a 15 min incubation at 37° C. Calcein-AM (300 μL) (MoBiTec, Göttingen, Germany) in DMEM/HAM's F12 1:1 was added to a final concentration of 1 μM and incubated for 30 min at 37° C.
(§8) For the calcein-AM assay using flow cytometry, the cell density of suspensions in DMEM/Ham's F12 1:1 was 2.5×10^7 cells/ml.
(§9) Gating on forward and side scatter in concert with propidium iodide staining allowed distinguishing live endothelial cells.
(§10) Twenty thousand cells were sorted in each run, and data were processed and analyzed with CellQuest (Franklin Lakes, N.J., USA). All fluorescence signals were corrected for background fluorescence. Calcein-AM auto-hydrolysis was measured in control samples (n=6) without cells.

zebrafish embryos = test: Tg(fli1:EGFP) zebrafish embryo in vivo angiogenesis assay; details: for Anti-angiogenic effect (in words): zebrafish embryos, concentration range; for Concentration at which intersomitic vessel (ISV) formation was suppressed: as low as, toxicity evident above
Procedure: Tg(fli1:EGFP) zebrafish, which express enhanced green fluorescent protein (GFP) in their endothelial cells, were used as an in vivo model for angiogenesis. At 20 hours post-fertilization (hpf), zebrafish embryos (10 per well/condition) were bathed in fish media, containing a concentration range of each of the compounds or control. Compounds had been dissolved as stock solutions in DMSO, stored at room temperature, and serially diluted in fish media prior to use. The anti-angiogenic tyrosinase kinase inhibitor SU5416 (Pfizer), and a vehicle-alone control containing the maximum concentration of DMSO were used as controls in all experiments.
In the first sets of experiments, a broad range of concentrations were used to identify the maximum tolerable dose, based on toxicity to the embryos, visualized directly by light microscopy. Subsequent experiments were performed a minimum of two times. Live analyses of the embryos were performed under light and fluorescence microscopy at 28 hpf and 48 hpf to monitor viability, overall morphology, and pattern of swimming. Angiogenesis was evaluated visually by fluorescence microscopy.
The developmental growth and patterning of the dorsal aorta, posterior cardinal vein, intersomitic vessels (ISV), and vascular plexus (VP) were monitored, as was the heart rate, and blood flow.
Eight compounds (4, 7, 8, 9, 10, 11, 12 and 15) were compared to artesunate for their anti-angiogenic potential using an in vivo zebrafish embryo model system (Table III blow). DMSO at concentrations of 0.5, 1, and 2% was used as vehicle control. No effects were observed on overall morphology, heart rate, blood flow, or angiogenesis in control embryos. The anti-angiogenic agent SU5416 was used as a positive control.

[2] = system: CEM/ADR5000 leukemia cells (P-glycoprotein-overexpressing); test: XTT cytotoxicity assay, multidrug-resistant cells; format: cell-based, human; details: for Degree of resistance: CEM/ADR5000 versus CCRF-CEM
Procedure: (§1) Multidrug-resistant, P-glycoprotein-overexpressing CEM/ADR5000 cells and their parental, drug-sensitive counterpart, CCRF-CEM cells were used. The cell lines were provided by Dr. Daniel Steinbach (University of Ulm, Ulm, Germany).
(§2) Doxorubicin resistance of CEM/ADR5000 was maintained as described. […] The cell lines were maintained in RPMI medium (Life Technologies) supplemented with 10% FCS in a humidified 7% CO2 atmosphere at 37° C. Cells were passaged twice weekly. All experiments were done with cells in the logarithmic growth
(§3) Cytotoxicity was assessed using the 2,3-bis[2-methoxy-4-nitro-5-sulfophenyl]-2H-tetrazolium-5-carboxanilide inner salt (XTT) assay kit (Roche, Indianapolis, Ind.), which measures the metabolic activity of viable cells. Toxicity of compounds was determined with the Cell Proliferation Kit II (Roche Diagnostics, Mannheim, Germany), according to the manufacturer's instructions.
Fresh stock solutions of each compound were prepared in DMSO at a concentration of 100 mM, and a dilution series was prepared in DMEM. […] Marginal wells were filled with 100 μL of media to minimize evaporation. A row of wells with cells was left untreated and another row of wells with cells was treated with 1 μL DMSO, the latter serving as a solvent control. All studies were performed in duplicate, in a range of concentrations, and in two independent experiments with different batches of cells.
(§4) The ligand binding module of Sigma plot software (version 10.0) was used for analysis.
(§5) All compounds were tested both towards drug-sensitive CCRF-CEM leukemia cells and their multidrug-resistant subline, CEM/ADR5000.

P-glycoprotein (P-gp) [3] = biological target: T1, P-glycoprotein (P-gp); test: Calcein-AM assay with flow cytometry in CEM/ADR5000 cells; details: for EC max (intracellular calcein fluorescence compared to untreated controls) / EC50: CEM/ADR5000 cells, flow cytometry; for EC50: read-out: EC50 calcein-AM assay
Procedure: as §6, §7, §8, §9, §10

CCRF-CEM leukemia cells = test: XTT cytotoxicity assay, drug-sensitive cells; format: cell-based, human
Procedure: as §1, §2, §3
Fresh stock solutions of each compound were prepared in DMSO at a concentration of 100 mM, and a dilution series was prepared in DMEM. Cells were suspended at a final concentration of 1×10^5 cells/ml, and […] were aliquoted per well into a 96-well culture plate (Costar, Corning, USA). Marginal wells were filled with 100 μL of media to minimize evaporation. A row of wells with cells was left untreated and another row of wells with cells was treated with 1 μL DMSO, the latter serving as a solvent control. All studies were performed in duplicate, in a range of concentrations, and in two independent experiments with different batches of cells.
as §4, §5

[4] = system: P-gp expressed in porcine capillaries; test: Transport of NBD-CSA into porcine brain capillary lumens (confocal microscopy); format: cell-based
Excerpt: Luminal P-gp was inhibited by a well-known selective P-gylcoprotein inhibitor, PSC-833.

[5] = Homo sapiens, ADR5000, read-out: IC50 CEM/ADR5000
[6] = multidrug-resistant CEM/ADR5000 cells, XTT, read-out: IC50 CEM/ADR5000

T1 sequence (P08183 whole entry): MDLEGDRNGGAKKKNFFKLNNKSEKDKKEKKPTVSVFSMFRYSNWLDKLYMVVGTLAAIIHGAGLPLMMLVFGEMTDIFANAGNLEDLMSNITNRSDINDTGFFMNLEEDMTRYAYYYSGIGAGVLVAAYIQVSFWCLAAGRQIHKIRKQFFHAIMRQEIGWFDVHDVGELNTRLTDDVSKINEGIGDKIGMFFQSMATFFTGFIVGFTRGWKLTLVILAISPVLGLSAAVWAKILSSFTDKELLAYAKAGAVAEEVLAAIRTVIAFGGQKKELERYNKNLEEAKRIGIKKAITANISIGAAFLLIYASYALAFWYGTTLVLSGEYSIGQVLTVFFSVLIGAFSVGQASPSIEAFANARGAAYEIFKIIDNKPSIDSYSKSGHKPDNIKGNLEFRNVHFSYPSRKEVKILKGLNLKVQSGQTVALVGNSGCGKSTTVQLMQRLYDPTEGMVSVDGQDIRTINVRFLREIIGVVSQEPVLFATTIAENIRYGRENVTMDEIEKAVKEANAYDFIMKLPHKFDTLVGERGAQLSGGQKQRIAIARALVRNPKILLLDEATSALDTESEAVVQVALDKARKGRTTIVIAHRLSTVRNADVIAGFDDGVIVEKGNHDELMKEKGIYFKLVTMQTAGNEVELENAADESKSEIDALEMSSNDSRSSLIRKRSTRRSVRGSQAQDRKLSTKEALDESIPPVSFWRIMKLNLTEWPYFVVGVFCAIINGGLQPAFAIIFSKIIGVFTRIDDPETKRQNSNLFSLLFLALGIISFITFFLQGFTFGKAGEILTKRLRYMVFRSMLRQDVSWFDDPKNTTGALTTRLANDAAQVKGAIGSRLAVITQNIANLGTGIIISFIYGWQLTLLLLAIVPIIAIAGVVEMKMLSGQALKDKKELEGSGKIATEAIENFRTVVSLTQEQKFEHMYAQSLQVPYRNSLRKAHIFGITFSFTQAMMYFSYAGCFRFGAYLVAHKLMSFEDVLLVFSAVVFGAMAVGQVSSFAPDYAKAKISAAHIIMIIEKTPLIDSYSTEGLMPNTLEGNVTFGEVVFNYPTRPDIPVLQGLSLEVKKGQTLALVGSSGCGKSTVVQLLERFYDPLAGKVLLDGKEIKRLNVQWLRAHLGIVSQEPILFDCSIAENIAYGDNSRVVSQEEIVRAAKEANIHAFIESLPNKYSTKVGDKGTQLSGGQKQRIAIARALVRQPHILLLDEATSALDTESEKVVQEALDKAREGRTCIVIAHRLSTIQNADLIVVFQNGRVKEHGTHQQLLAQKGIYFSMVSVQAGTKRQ

C[C@H]1[C@H](OC(=O)CCC(=O)O)O[C@@H]2O[C@@]3(C)CC[C@H]4[C@H](C)CC[C@@H]1[C@@]24OO3 [Artesunate, artesunate, reference compound]
Behaviour in cell culture medium (HUVEC cells; starvation medium EGM-2EV): precipitation from the cell culture medium | P-gp inhibition judged by calcein fluorescence (P-glycoprotein (P-gp) [1]): do not act as P-gp inhibitors | Dead = number of dead embryos up to 48 hpf (zebrafish embryos; 25 μg/ml, N = 20 embryos): 1 | Vasc. Defects = number of surviving embryos with vascular defects (zebrafish embryos; 25 μg/ml, N = 20 embryos): 0 | Dead = number of dead embryos up to 48 hpf (zebrafish embryos; 50 μg/ml, N = 20 embryos): 1 | Vasc. Defects = number of surviving embryos with vascular defects (zebrafish embryos; 50 μg/ml, N = 20 embryos): 2 | Dead = number of dead embryos up to 48 hpf (zebrafish embryos; 100 μg/ml, N = 20 embryos): 1 | Vasc. Defects = number of surviving embryos with vascular defects (zebrafish embryos; 100 μg/ml, N = 20 embryos): 6 | Dead = number of dead embryos up to 48 hpf (zebrafish embryos; 200 μg/ml, N = 10 embryos): 1 | Vasc. Defects = number of surviving embryos with vascular defects (zebrafish embryos; 200 μg/ml, N = 10 embryos): 9 | Anti-angiogenic effect (in words) (zebrafish embryos): dose-dependent anti-angiogenic effects

C[C@@H]1CC[C@H]2[C@@H](C)C(=O)O[C@@H]3O[C@@]4(C)CC[C@@H]1[C@]32OO4 [Compound 1, artemisinin]
IC50 [2, 5]: 94.9 ± 30.5 µM | P-gp inhibition judged by calcein fluorescence (P-glycoprotein (P-gp) [3]; CCRF-CEM and CEM/ADR5000 cells, FIG. 5): do not act as P-gp inhibitors | EC max (intracellular calcein fluorescence compared to untreated controls) (P-glycoprotein (P-gp) [3]): 114.1 ± 2.85^ % | IC50 (CCRF-CEM leukemia cells; Homo sapiens): 148 ± 16.6 µM

C[C@@H]1CC[C@H]2[C@@H](C)CO[C@@H]3O[C@@]4(C)CC[C@@H]1[C@]32OO4 [Compound 3, Deoxoartemisinin]
Degree of resistance [2]: 0.49 | IC50 [2, 5]: 117 ± 8.2 µM | IC50 (CCRF-CEM leukemia cells; Homo sapiens): 241 ± 50.7 µM

CC1=CO[C@@H]2O[C@@]3(C)CC[C@H]4[C@H](C)CC[C@@H]1[C@@]24OO3 [Compound 4, Anhydrodihydroartemisinin]
IC50 [2, 5]: 33.6 ± 0.68 µM | IC50 (CCRF-CEM leukemia cells; Homo sapiens): 83.4 ± 7.51 µM | Dead = number of dead embryos up to 48 hpf (zebrafish embryos; 50 μg/ml, N = 10 embryos): 2 | Vasc. Defects = number of surviving embryos with vascular defects (zebrafish embryos; 50 μg/ml, N = 10 embryos): 0 | Dead = number of dead embryos up to 48 hpf (zebrafish embryos; 75 μg/ml, N = 10 embryos): 5 | Other defects observed (zebrafish embryos; 75 μg/ml, N = 10 embryos): B, E | Vasc. Defects = number of surviving embryos with vascular defects (zebrafish embryos; 75 μg/ml, N = 10 embryos): 0

CC(=O)OC1O[C@@H]2O[C@@]3(C)CC[C@H]4[C@H](C)CCC([C@H]1C)[C@@]24OO3 (stereo partly shown) [Compound 7, 10-Dihydroartemisinyl acetate]
Inhibition of proliferation and survival of HUVECs (HUVEC cells): inhibited the proliferation and survival of HUVECs significantly stronger than artemisinin | Degree of resistance [2]: 12.83 | Anti-angiogenic effect (in words) (zebrafish embryos): dose-dependent anti-angiogenic effects

C[C@H]1C(OC(=O)C(Cl)Cl)O[C@@H]2O[C@@]3(C)CC[C@H]4[C@H](C)CCC1[C@@]24OO3 (stereo partly shown) [Compound 8, 10-Dihydroartemisinyl 2′,2′-Dichloroacetate]
Inhibition of luminal P-gp (NBD-CSA in capillary lumen) [4]: almost empty lumen | Anti-angiogenic effect (in words) (zebrafish embryos): dose-dependent anti-angiogenic effects

CCCC(=O)OC1O[C@@H]2O[C@@]3(C)CC[C@H]4[C@H](C)CCC([C@H]1C)[C@@]24OO3 (stereo partly shown) [Compound 9, 10-Dihydroartemisinyl Butyrate]
Degree of resistance [2]: 0.51 | Dead = number of dead embryos up to 48 hpf (zebrafish embryos; 25 μg/ml, N = 30 embryos): 17 | Concentration at which intersomitic vessel (ISV) formation was suppressed (zebrafish embryos): 1 µg/mL | Anti-angiogenic effect (in words) (zebrafish embryos): dose-dependent anti-angiogenic effects

CC(C)C(=O)OC1O[C@@H]2O[C@@]3(C)CC[C@H]4[C@H](C)CCC([C@H]1C)[C@@]24OO3 (stereo partly shown) [Compound 10]
Inhibition of proliferation and survival of HUVECs (HUVEC cells): inhibited the proliferation and survival of HUVECs significantly stronger than artemisinin | Degree of resistance [2]: 22.46 | Anti-angiogenic effect (in words) (zebrafish embryos): dose-dependent anti-angiogenic effects

CCCC(CCC)C(=O)OC1O[C@@H]2O[C@@]3(C)CC[C@H]4[C@H](C)CCC([C@H]1C)[C@@]24OO3 (stereo partly shown) [Compound 11, 10-Dihydroartemisinyl 2′-Propylpentanoate]
Degree of resistance [2]: 1.23 | Dead = number of dead embryos up to 48 hpf (zebrafish embryos; 10 μg/ml, N = 30 embryos): 22 | Concentration at which intersomitic vessel (ISV) formation was suppressed (zebrafish embryos): 1 µg/mL | Anti-angiogenic effect (in words) (zebrafish embryos): dose-dependent anti-angiogenic effects

C[C@H]1C(OC(=O)C(C)(C)C)O[C@@H]2O[C@@]3(C)CC[C@H]4[C@H](C)CCC1[C@@]24OO3 (stereo partly shown) [Compound 12, 10-Dihydroartemisinyl 2′,2′-Dimethylpropianate]
Degree of resistance [2]: 2.65 | Dead = number of dead embryos up to 48 hpf (zebrafish embryos; 1.0 μg/ml, N = 10 embryos): 0 | Anti-angiogenic effect (in words) (zebrafish embryos): a specific anti-angiogenic effect was not observed | Toxicity to embryos (in words) (zebrafish embryos; zebrafish, in vivo): the most toxic at comparable doses

C[C@H]1C(OC(=O)c2ccccc2)O[C@@H]2O[C@@]3(C)CC[C@H]4[C@H](C)CCC1[C@@]24OO3 (stereo partly shown) [Compound 13, 10-dihydroartemisinyl benzoate]
Degree of resistance [2]: 7.79

C[C@H]1C(OC(=O)N(C)C)O[C@@H]2O[C@@]3(C)CC[C@H]4[C@H](C)CCC1[C@@]24OO3 (stereo partly shown) [Compound 14]
Degree of resistance [2]: 19.76

CCC(C)OC1OC2OC3(C)CCC4C(C)CCC(C1C)C24OO3 (stereo not shown) [Compound 15, 10-(2′-Butyloxy)Dihydroartemisinin]
Inhibition of luminal P-gp (NBD-CSA in capillary lumen) [4]: almost empty lumen | Degree of resistance [2]: 0.47 | IC50 [2, 6]: 7.96 ± 3.76 µM | EC max (intracellular calcein fluorescence compared to untreated controls) (P-glycoprotein (P-gp) [3]): 1180 ± 178.7% | EC50 (P-glycoprotein (P-gp) [3]): 61.8 ± 9.62 µM | IC50 (CCRF-CEM leukemia cells): 16.7 ± 7.34 µM | Dead = number of dead embryos up to 48 hpf (zebrafish embryos; 1.0 μg/ml, N = 10 embryos): 0 | Vasc. Defects = number of surviving embryos with vascular defects (zebrafish embryos; 1.0 μg/ml, N = 10 embryos): 0 | Dead = number of dead embryos up to 48 hpf (zebrafish embryos; 10 μg/ml, N = 10 embryos): 1 | Vasc. Defects = number of surviving embryos with vascular defects (zebrafish embryos; 10 μg/ml, N = 10 embryos): 0 | Dead = number of dead embryos up to 48 hpf (zebrafish embryos; 25 μg/ml, N = 10 embryos): 0 | Vasc. Defects = number of surviving embryos with vascular defects (zebrafish embryos; 25 μg/ml, N = 10 embryos): 0

CC1CCC2C(C)C(SCCN)OC3OC4(C)CCC1C32OO4 (stereo not shown) [Compound 16, 10-Dihydroartemisinyl Thioethylamine]
Degree of resistance [2]: 3.88 | IC50 [2, 6]: 3.34 ± 0.64 µM | EC max (intracellular calcein fluorescence compared to untreated controls) (P-glycoprotein (P-gp) [3]): 1011 ± 106.3% | EC50 (P-glycoprotein (P-gp) [3]): 27.2 ± 4.69 µM | IC50 (CCRF-CEM leukemia cells): 0.86 ± 0.19 µM

C/C=C/C[C@@H](C)C(=O)[C@H]1C(=O)N[C@@H](C(C)C)C(=O)N(C)CC(=O)N(C)[C@@H](CC(C)C)C(=O)N[C@@H](C(C)C)C(=O)N(C)[C@@H](CC(C)C)C(=O)N[C@@H](C)C(=O)N[C@H](C)C(=O)N(C)[C@@H](CC(C)C)C(=O)N(C)[C@@H](CC(C)C)C(=O)N(C)[C@@H](C(C)C)C(=O)N1C [PSC-833, reference compound]
Inhibition of luminal P-gp (NBD-CSA in capillary lumen) [4]: inhibited

Cc1cc(C)c(/C=C2\C(=O)Nc3ccccc32)[nH]1 [SU5416, reference compound]
Formation of intersomitic vessels (ISVs) at 28 hpf (zebrafish embryos; 10 μg/ml, 28 hpf): completely blocked | ISV sprouting at 48 hpf compared to control embryos (zebrafish embryos; 10 μg/ml, 48 hpf): sprouted only minimally
